“Also recorded” adds a separate entry of the source.
Test system: retinal function (ERG a- and b-wave amplitudes)
Experiment: Retinal function assessed by electroretinograms (ERG)
Type: in vivo, C57BL/6 mice
Procedure: Adult female C57BL/6 mice were given an intravitreous injection of 2, 4, or 20 μg of CGC-11144 in one eye and an injection of vehicle in the fellow eye and after 3 days ERGs were recorded as previously described (Okoye et al., J. Neuosci. 23: 4164-4172 (2003)). ERGs were also performed after daily periocular injections of 0.2 mg of CGC-11144 for 2 weeks. Mice were dark-adapted for a standardized 12-hour period overnight and ERG recordings were performed using the Espion ERG Diagnosys (Diagnosys LLL, Littleton, Mass.). All manipulations were done with dim red light illumination. Beginning the same time each morning, mice were anesthetized by ip injection of 25 μl/g body weight of Avertin (Aldrich, Milwaukee, Wis.) diluted 1:39 in PBS. Corneas were anesthetized with a drop of 0.5% proparacaine hydrochloride (Alcon Labs) and pupils were dilated with 1% tropicamide. Mice were placed on a pad heated to 39° C. and platinum electrodes were placed on each cornea after application of gonioscopic prism solution (Alcon Labs). The reference electrode was placed subcutaneously in the anterior scalp between the eyes, and the ground electrode was inserted into the tail. Electrode impedance was balanced for each eye pair measured. The head of the mouse was placed in a standardized position in a Ganzfeld bowl illuminator that assured equal illumination of the eyes. Simultaneous recordings from both eyes were made for eleven intensity levels of white light ranging from −3.00 to +1.40 log cd-s/m^2. The Espion ERG machine measures the ERG response six times at each flash-intensity and records the average value.

[1] = intravitreous 2 μg, after 3 days

**Q.** Which results are given for CCNCCCCNCCCCNCCCCNCCCCNC/C=C/CNCCCCNCCCCNCCCCNCCCCNCC.Cl.Cl.Cl.Cl.Cl.Cl.Cl.Cl.Cl.Cl [CGC-11144]?
**A.** ERG a- and b-wave amplitudes vs vehicle (daily periocular 200 μg for 14 days): normal ERG a- and b-wave amplitudes; also recorded: no difference in mean a-wave or b-wave amplitudes; ERG a-wave amplitudes [1]: only mildly decreased at highest flash intensities; ERG b-wave amplitudes [1]: profoundly reduced at all flash intensities; ERG amplitudes (intravitreous 10 μg, after 3 days): striking decrease in ERG amplitudes; ERG a- and b-wave amplitudes (intravitreous 20 μg, after 3 days): dramatically reduced; ERG b-wave amplitudes compared to PBS (intravitreous 2, 4, or 20 μg, after 3 days, p<0.05): significant decrease in b-wave amplitudes; ERG a-wave amplitudes compared to PBS (intravitreous 4 or 20 μg, after 3 days, p<0.05): significant decrease in a-wave amplitudes
